Experimental data as given in patent US20260102397A1, “PHARMACEUTICAL COMPOSITION FOR TREATING LEUKEMIA COMPRISING FLT3 INHIBITOR” (HANMI PHARM. CO., LTD., priority 2020, published 2026).

What was measured:
[1] = molecular target: T1, SYK (Homo sapiens, UniProt P43405); assay: Kinase inhibition test, Z'-LYTE; type: biochemical; conditions: read-out: 50% activity inhibition value (IC50), SYK
T1 construct: purchased Thermo Fisher Scientific
Experimental: Activity measurement was conducted using LanthaScreen test method (wild type and mutation type FLT3) or Z′-LYTE test method (SYK) developed by Thermo Fisher Scientific. LanthaScreen test method is a method of measuring protein activity by measuring fluorescence resonance energy transfer (FRET) signal under the existence of europium-conjugated antibody on the basis of the binding of Alexa Fluor 647-labelled, ATP-competitive kinase inhibitor (kinase tracer-236) to kinase. Z′-LYTE test method is a method using an enzyme which can cut dephosphorylated substrate, and this method measures the activity of kinase protein by measuring two fluorescent FRET signals attached to each end of peptide substrate. The two experiments were all conducted in 384 well plates under the conditions of 50 mM HEPES pH 7.5, 0.01% BRIJ-35, 10 mM MgCl2, 1 mM EGTA, and 1% DMSO.

[2] = tested on: MOLM-14 FLT3-ITD/F691L cell strain; assay: Mouse model hypodermically implanted with MOLM-14 FLT3-ITD/F691L cell strain; type: in vivo; conditions: nude mice, MOLM-14 FLT3-ITD/F691L subcutaneous, 30 mg/kg/day oral once daily
Experimental: MOLM-14 FLT3-ITD/F691L cell strain was subcutaneously injected into a nude mouse at 3×10^^6 cell/0.15 mL/mouse and the mouse was left to grow.
The control group was administered for 13 days and the drug administration groups were administered for 18 days with each pertinent drug.
The tumor volume (mm^3) of the surviving mice in each group was plotted on the y-axis, whereas the number of days of medication was plotted on the x-axis. In order to evaluate the effects of the administration of drugs, the results of complete response (CR) in which tumor had completely disappeared were checked. […] (*p<0.05, **p<0.01, ***p<0.001, and ****p<0.0001 Sidk's test was conducted after two-way analysis of variance)

Compound: Cc1ccc2c(-c3nc(Nc4cc(CN5C[C@@H](C)N[C@@H](C)C5)cc(C5CC5)c4)ncc3Cl)c[nH]c2c1 [Compound A, 5-chloro-N-(3-cyclopropyl-5-(((3R,5S)-3,5-dimethylpiperazine-1-yl)methyl)phenyl)-4-(6-methyl-1H-indol-3-yl)pyrimidine-2-amin]
- IC50 [1]: 2.9 nM
- complete response (CR, tumor completely disappeared), day of administration [2]: 12 days
- volume of tumor compared with Gilteritinib administration group ([2]; 18 days, FIG. 1): reduced more significantly
